Measurements from patent publication US12448389B2, “BRM targeting compounds and associated methods of use” (Prelude Therapeutics Incorporated, priority 2020, dated 2025).

Legend:
SMARCA2-HiBiT = target: T1, SMARCA2-HiBiT (Homo sapiens, UniProt P51531); experiment: SMARCA2 HiBiT degradation assay in HeLa cells; assay type: cell-based; settings: 18 hours incubation; for DC50: read-out: HeLa_HiBit-SM2 DC50; for Dmax: HeLa, read-out: HeLa-HiBit-SM2 Dmax (%)
T1 construct: SMARCA2-HiBiT knock-in Hela monoclonal cell (CS302366); host or cells: HeLa monoclonal knock-in line (CRISPR HiBiT knock-in at the endogenous locus, heterozygous)
Summary of the method: (§1)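 HeLa monoclonal lines with heterozygous HiBiT knock-in were seeded at 2500 cells/well in EMEM with 10% FBS and treated with compound for 18 h at 37 °C. Remaining tagged protein was measured by Nano-Glo HiBiT lytic luminescence after 30–60 min at RT, and values came from curve fitting.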

SMARCA4-HiBiT = target: T2, SMARCA4-HiBiT (Homo sapiens, UniProt P51532); experiment: SMARCA4 HiBiT degradation assay in HeLa cells; assay type: cell-based; settings: 18 hours incubation; for DC50: read-out: HeLa-HiBit-SM4 DC50; for Dmax: HeLa, read-out: HeLa-HiBit-SM4 Dmax (%)
T2 construct: SMARCA4-HiBiT knock-in Hela monoclonal cell (CS3023226); host or cells: HeLa monoclonal knock-in line (CRISPR HiBiT knock-in at the endogenous locus, heterozygous)
Summary of the method: as §1

T1 sequence (P51531 whole entry): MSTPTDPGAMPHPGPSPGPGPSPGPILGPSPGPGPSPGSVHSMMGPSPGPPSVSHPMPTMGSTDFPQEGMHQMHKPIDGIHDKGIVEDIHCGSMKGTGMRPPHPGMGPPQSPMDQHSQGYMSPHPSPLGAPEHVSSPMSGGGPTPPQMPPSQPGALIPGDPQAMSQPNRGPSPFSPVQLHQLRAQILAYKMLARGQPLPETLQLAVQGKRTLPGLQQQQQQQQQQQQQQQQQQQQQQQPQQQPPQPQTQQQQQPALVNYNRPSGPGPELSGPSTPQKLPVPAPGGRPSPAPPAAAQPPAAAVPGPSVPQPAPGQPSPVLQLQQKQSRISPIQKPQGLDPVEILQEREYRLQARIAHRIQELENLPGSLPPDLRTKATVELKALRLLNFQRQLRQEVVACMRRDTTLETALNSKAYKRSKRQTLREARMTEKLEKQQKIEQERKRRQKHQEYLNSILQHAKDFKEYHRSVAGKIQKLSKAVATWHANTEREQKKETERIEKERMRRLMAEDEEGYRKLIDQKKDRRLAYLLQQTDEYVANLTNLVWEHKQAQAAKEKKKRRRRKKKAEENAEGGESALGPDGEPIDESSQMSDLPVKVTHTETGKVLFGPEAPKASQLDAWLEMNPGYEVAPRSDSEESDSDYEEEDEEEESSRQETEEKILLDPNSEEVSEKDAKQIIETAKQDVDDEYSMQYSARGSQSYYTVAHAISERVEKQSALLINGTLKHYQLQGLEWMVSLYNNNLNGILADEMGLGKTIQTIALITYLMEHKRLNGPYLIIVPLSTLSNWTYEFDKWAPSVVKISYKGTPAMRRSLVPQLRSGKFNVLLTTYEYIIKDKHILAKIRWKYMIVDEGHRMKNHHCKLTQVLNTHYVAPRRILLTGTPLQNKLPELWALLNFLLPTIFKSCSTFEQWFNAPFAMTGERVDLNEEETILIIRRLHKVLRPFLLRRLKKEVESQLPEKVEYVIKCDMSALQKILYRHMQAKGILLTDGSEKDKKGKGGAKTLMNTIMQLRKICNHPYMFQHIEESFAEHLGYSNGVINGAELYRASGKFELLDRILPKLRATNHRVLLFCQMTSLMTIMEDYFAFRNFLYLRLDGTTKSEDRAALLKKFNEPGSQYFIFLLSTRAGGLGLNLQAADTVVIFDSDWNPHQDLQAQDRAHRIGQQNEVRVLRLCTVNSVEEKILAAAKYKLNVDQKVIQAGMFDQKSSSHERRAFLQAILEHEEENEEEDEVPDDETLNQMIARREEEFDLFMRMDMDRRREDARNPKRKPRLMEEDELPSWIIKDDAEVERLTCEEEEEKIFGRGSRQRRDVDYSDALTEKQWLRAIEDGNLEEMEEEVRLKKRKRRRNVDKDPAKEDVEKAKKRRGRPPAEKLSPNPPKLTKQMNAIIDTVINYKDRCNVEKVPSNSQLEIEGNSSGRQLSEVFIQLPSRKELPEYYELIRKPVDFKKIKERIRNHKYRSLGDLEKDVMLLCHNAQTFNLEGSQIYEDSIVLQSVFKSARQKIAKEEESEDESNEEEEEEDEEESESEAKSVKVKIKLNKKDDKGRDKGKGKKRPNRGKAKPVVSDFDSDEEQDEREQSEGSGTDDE
T2 sequence (P51532 whole entry): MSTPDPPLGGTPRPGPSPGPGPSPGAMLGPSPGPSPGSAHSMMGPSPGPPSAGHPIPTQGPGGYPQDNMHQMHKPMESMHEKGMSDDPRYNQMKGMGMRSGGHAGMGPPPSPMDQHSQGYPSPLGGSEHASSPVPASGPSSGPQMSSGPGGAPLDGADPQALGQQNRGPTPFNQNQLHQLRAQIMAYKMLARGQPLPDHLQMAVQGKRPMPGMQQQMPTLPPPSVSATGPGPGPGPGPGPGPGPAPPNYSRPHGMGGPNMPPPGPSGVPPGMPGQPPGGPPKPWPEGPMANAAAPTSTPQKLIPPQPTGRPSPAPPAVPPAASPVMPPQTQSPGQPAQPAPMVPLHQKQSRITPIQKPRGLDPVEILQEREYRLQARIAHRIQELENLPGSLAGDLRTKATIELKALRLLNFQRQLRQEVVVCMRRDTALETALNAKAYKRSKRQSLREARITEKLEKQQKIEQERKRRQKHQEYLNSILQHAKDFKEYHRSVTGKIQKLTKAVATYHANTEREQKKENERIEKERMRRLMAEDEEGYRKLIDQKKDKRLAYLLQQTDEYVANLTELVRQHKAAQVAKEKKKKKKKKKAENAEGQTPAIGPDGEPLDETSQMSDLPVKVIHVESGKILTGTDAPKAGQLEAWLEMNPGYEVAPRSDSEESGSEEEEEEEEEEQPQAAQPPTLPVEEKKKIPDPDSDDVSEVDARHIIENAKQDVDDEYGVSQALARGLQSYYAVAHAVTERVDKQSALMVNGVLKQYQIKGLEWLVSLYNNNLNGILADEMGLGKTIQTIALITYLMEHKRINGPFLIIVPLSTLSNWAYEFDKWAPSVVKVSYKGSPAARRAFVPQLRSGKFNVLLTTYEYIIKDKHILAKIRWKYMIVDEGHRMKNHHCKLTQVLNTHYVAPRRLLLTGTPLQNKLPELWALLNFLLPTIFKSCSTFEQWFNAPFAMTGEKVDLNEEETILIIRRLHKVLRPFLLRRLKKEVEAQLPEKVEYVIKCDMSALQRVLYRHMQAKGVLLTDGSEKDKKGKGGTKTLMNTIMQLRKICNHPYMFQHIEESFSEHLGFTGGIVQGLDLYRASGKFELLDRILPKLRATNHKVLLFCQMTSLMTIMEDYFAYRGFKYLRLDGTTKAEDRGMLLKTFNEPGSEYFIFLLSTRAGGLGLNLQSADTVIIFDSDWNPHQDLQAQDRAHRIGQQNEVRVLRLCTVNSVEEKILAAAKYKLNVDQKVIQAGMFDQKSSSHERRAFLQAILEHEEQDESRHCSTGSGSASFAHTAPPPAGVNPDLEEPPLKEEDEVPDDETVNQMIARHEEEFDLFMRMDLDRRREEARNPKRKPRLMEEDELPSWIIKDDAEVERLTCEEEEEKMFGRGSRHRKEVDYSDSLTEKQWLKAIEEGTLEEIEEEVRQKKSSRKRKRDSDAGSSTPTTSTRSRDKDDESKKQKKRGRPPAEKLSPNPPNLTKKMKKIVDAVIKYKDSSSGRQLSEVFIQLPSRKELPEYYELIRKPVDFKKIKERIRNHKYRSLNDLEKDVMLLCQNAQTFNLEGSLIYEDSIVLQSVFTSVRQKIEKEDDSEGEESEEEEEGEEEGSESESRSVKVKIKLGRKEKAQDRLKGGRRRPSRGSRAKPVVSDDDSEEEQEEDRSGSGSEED

DC50 (SMARCA2-HiBiT) [nM] | Dmax (SMARCA2-HiBiT) [%] | DC50 (SMARCA4-HiBiT) [nM] | Dmax (SMARCA4-HiBiT) [%] | HeLa-HiBit-SM4 Dmax (%) (SMARCA4-HiBiT) | Compound
< 10 | > 85 | < 10 | 75 to 85 | – | O=C1CCC(NC(=O)c2ccc(N3CCC(CN4CCC(N5CCN6c7cc(-c8ccccc8O)nnc7NC[C@H]6C5)CC4)CC3)cn2)C(=O)N1 (stereo partly drawn) [Example 24, N-(2,6-dioxopiperidin-3-yl)-5-(4-((4-((S)-2-(2-hydroxyphenyl)-5,6,6a,7,9,10-hexahydro-8H-pyrazino[1′,2′:4,5]pyrazino[2,3-c]pyridazin-8-yl)piperidin-1-yl)methyl)piperidin-1-yl)picolinamide]
< 10 | 50 to 75 | 10 to 100 | 75 to 85 | – | CN(CC1CCN(CC2CCN(c3ccc4c(c3)C(=O)N(C3CCC(=O)NC3=O)C4=O)CC2)CC1)C1CCN2c3cc(-c4ccccc4O)nnc3NCC2C1 (stereo not shown) [Example 254, 2-(2,6-dioxopiperidin-3-yl)-5-(4-((4-(((2-(2-hydroxy-phenyl)-6,6a,7,8,9,10-hexahydro-5H-pyrido[1′,2′:4,5]pyrazino[2,3-c]pyridazin-8-yl)(methyl)amino)methyl)piperidin-1-yl)methyl)piperidin-1-yl)isoindoline-1,3-dione]
< 10 | > 85 | < 10 | – | C (C=50%<Dmax<=75%) | O=C1CCC(N2C(=O)c3ccc(N4CC[C@H](CN5C[C@@H]6[C@H](C5)[C@H]6CN5CCN6c7cc(-c8cc(F)ccc8O)nnc7NC[C@H]6C5)[C@@H](F)C4)cc3C2=O)C(=O)N1 (stereo partly drawn) [Example 277, 2-(2,6-dioxopiperidin-3-yl)-5-((3R,4R)-3-fluoro-4-(((1R,5S,6R)-6-(((S)-2-(5-fluoro-2-hydroxyphenyl)-5,6,6a,7,9,10-hexahydro-8H-pyrazino[1′,2′:4,5]pyrazino[2,3-c]pyridazin-8-yl)methyl)-3-azabicyclo[3.1.0]hexan-3-yl)methyl)piperidin-1-yl)isoindoline-1,3-dione]
< 10 | > 85 | < 10 | 75 to 85 | – | C[C@H]1CN2c3cc(-c4ccccc4O)nnc3NC[C@H]2CN1CC1CCN(CC2CCN(c3ccc4c(c3)C(=O)N(C3CCC(=O)NC3=O)C4=O)CC2)CC1 (stereo partly drawn) [Example 28, 2-(2,6-dioxopiperidin-3-yl)-5-(4-((4-(((6aS,9S)-2-(2-hydroxyphenyl)-9-methyl-5,6,6a,7,9,10-hexahydro-8H-pyrazino[1′,2′:4,5]pyrazino[2,3-c]pyridazin-8-yl)methyl)piperidin-1-yl)methyl)piperidin-1-yl) isoindoline-1,3-dione]
< 10 | > 85 | < 10 | > 85 | – | O=C1CCC(N2C(=O)c3cccc(N4CCC(N5CCC(N6CCN7c8cc(-c9ccccc9O)nnc8NC[C@H]7C6)CC5)CC4)c3C2=O)C(=O)N1 (stereo partly drawn) [Example 66, 2-(2,6-dioxopiperidin-3-yl)-4-(4-((S)-2-(2-hydroxyphenyl)-5,6,6a,7,9,10-hexahydro-8H-pyrazino[1′,2′:4,5]pyrazino[2,3-c]pyridazin-8-yl)-[1,4′-bipiperidin]-1′-yl) isoindoline-1,3-dione]
< 10 | 50 to 75 | 10 to 100 | 75 to 85 | – | O=C1CCC(N2C(=O)c3ccc(NCCN4C[C@@H]5[C@H](C4)[C@H]5CN4CCN5c6cc(-c7ccccc7O)nnc6NC[C@H]5C4)cc3C2=O)C(=O)N1 (stereo partly drawn) [Example 153, 2-(2,6-dioxopiperidin-3-yl)-5-((2-((1R,5S,6r)-6-(((S)-2-(2-hydroxyphenyl)-5,6,6a,7,9,10-hexahydro-8H-pyrazino[1′,2′:4,5]pyrazino[2,3-c]pyridazin-8-yl)methyl)-3-azabicyclo[3.1.0]hexan-3-yl)ethyl)amino)isoindoline-1,3-dione]
< 10 | > 85 | < 10 | 75 to 85 | – | O=C1CCC(N2C(=O)c3ccc(N4CCN(CC5CCC(CN6CCN7c8cc(-c9ccccc9O)nnc8NC[C@H]7C6)CC5)CC4)cc3C2=O)C(=O)N1 (stereo partly drawn) [Example 168, 2-(2,6-dioxopiperidin-3-yl)-5-(4-((4-(((S)-2-(2-hydroxyphenyl)-5,6,6a,7,9,10-hexahydro-8H-pyrazino[1′,2′:4,5]pyrazino[2,3-c]pyridazin-8-yl)methyl)cyclohexyl)methyl)piperazin-1-yl)isoindoline-1,3-dione]
< 10 | 75 to 85 | 10 to 100 | 50 to 75 | – | O=C1CCC(N2C(=O)c3ccc(N4CC[C@@H]5CN(C6CCC(C(=O)N7CCN8c9cc(-c%10ccccc%10O)nnc9NC[C@H]8C7)CC6)C[C@H]5C4)cc3C2=O)C(=O)N1 (stereo partly drawn) [Example 97, 2-(2,6-dioxopiperidin-3-yl)-5-((3aS,7aS)-2-(4-((S)-2-(2-hydroxyphenyl)-6,6a,7,8,9,10-hexahydro-5H-pyrazino[1′,2′:4,5]pyrazino[2,3-c]pyridazine-8-carbonyl)cyclohexyl)octahydro-5H-pyrrolo[3,4-c]pyridin-5-yl) isoindoline-1,3-dione]
< 10 | 75 to 85 | < 10 | 75 to 85 | – | CN(CCNc1ccc2c(c1)C(=O)N(C1CCC(=O)NC1=O)C2=O)C1CCC(N2CCN3c4cc(-c5ccccc5O)nnc4NC[C@H]3C2)CC1 (stereo partly drawn) [Example 220, 2-(2,6-dioxopiperidin-3-yl)-5-((2-((4-((S)-2-(2-hydroxyphenyl)-5,6,6a,7,9,10-hexahydro-8H-pyrazino[1′,2′:4,5]pyrazino[2,3-c]pyridazin-8-yl)cyclohexyl)(methyl)amino)ethyl)amino) isoindoline-1,3-dione]
< 10 | 50 to 75 | 10 to 100 | 50 to 75 | – | O=C1CCC(N2C(=O)c3ccc(N4CCC(CN5CCC(S(=O)(=O)N6CCN7c8cc(-c9ccccc9O)nnc8NC[C@H]7C6)CC5)CC4)cc3C2=O)C(=O)N1 (stereo partly drawn) [Example 137, 2-(2,6-dioxopiperidin-3-yl)-5-(4-((4-(((S)-2-(2-hydroxyphenyl)-5,6,6a,7,9,10-hexahydro-8H-pyrazino[1′,2′:4,5]pyrazino[2,3-c]pyridazin-8-yl)sulfonyl)piperidin-1-yl)methyl)piperidin-1-yl)isoindoline-1,3-dione]
< 10 | > 85 | < 10 | > 85 | – | O=C1CCC(N2Cc3cc(N4CCC(CN5CCC(CN6CCN7c8cc(-c9ccccc9O)nnc8NC[C@H]7C6)CC5)CC4)c(F)cc3C2=O)C(=O)N1 (stereo partly drawn) [Example 234, 3-(6-fluoro-5-(4-((4-(((S)-2-(2-hydroxyphenyl)-5,6,6a,7,9,1O-hexahydro-8H-pyrazino[1′,2′:4,5]pyrazino[2,3-c]pyridazin-8-yl)methyl)piperidin-1-yl)methyl)piperidin-1-yl)-1-oxoisoindolin-2-yl)piperidine-2,6-dione]
< 10 | > 85 | 10 to 100 | 50 to 75 | – | O=C1CCC(N2C(=O)c3ccc(N4CC(CN5CCC(C(=O)N6CCN7c8cc(-c9ccccc9O)nnc8NC[C@H]7C6)CC5)C4)cc3C2=O)C(=O)N1 (stereo partly drawn) [Example 86, 2-(2,6-dioxopiperidin-3-yl)-5-(3-((4-((S)-2-(2-hydroxyphenyl)-6,6a,7,8,9,10-hexahydro-5H-pyrazino[1′,2′:4,5]pyrazino[2,3-c]pyridazine-8-carbonyl)piperidin-1-yl)methyl)azetidin-1-yl)isoindoline-1,3-dione]
< 10 | 75 to 85 | < 10 | 50 to 75 | – | O=C1CCC(N2C(=O)c3ccc(N4CCC(CN5CCCC(CN6CCN7c8cc(-c9ccccc9O)nnc8NC[C@H]7C6)C5)CC4)cc3C2=O)C(=O)N1 (stereo partly drawn) [Example 35, 2-(2,6-dioxopiperidin-3-yl)-5-(4-((3-(((S)-2-(2-hydroxyphenyl)-5,6,6a,7,9,10-hexahydro-8H-pyrazino[1′,2′:4,5]pyrazino[2,3-c]pyridazin-8-yl)methyl)piperidin-1-yl)methyl)piperidin-1-yl)isoindoline-1,3-dione]
< 10 | > 85 | < 10 | > 85 | – | O=C1CCC(N2Cc3ccc(N4CC(CN5CCC(CN6CCN7c8cc(-c9ccccc9O)nnc8NC[C@H]7C6)CC5)C4)cc3C2=O)C(=O)N1 (stereo partly drawn) [Example 276, 3-(6-(3-((4-(((S)-2-(2-hydroxyphenyl)-5,6,6a,7,9,10-hexahydro-8H-pyrazino[1′,2′:4,5]pyrazino[2,3-c]pyridazin-8-yl)methyl)piperidin-1-yl)methyl)azetidin-1-yl)-1-oxoisoindolin-2-yl) piperidine-2,6-dione]
< 10 | 75 to 85 | 10 to 100 | 75 to 85 | – | O=C1CCC(N2Cc3ccc(N4CCC(CN5CC6(C5)CN(C(=O)N5CCN7c8cc(-c9ccccc9O)nnc8NC[C@H]7C5)C6)CC4)cc3C2=O)C(=O)N1 (stereo partly drawn) [Example 101, 3-(6-(4-((6-((S)-2-(2-hydroxyphenyl)-6,6a,7,8,9,10-hexahydro-5H-pyrazino[1′,2′:4,5]pyrazino[2,3-c]pyridazine-8-carbonyl)-2,6-diazaspiro[3.3]heptan-2-yl)methyl)piperidin-1-yl)-1-oxoisoindolin-2-yl)piperidine-2,6-dione]
< 10 | > 85 | < 10 | 75 to 85 | – | O=C1CCC(N2Cc3ccc(N4CCC(CN5CCN(C(=O)N6CCN7c8cc(-c9cc(F)ccc9O)nnc8NC[C@H]7C6)CC5)CC4)cc3C2=O)C(=O)N1 (stereo partly drawn) [Example 282, 3-(6-(4-((4-((S)-2-(5-fluoro-2-hydroxyphenyl)-6,6a,7,8,9,10-hexahydro-5H-pyrazino[1′,2′:4,5]pyrazino[2,3-c]pyridazine-8-carbonyl)piperazin-1-yl)methyl)piperidin-1-yl)-1-oxoisoindolin-2-yl)piperidine-2,6-dione]
